Assay results published in article PMC9044501 (Journal of molecular biology, 2021).

Key:
[1] = target: T1, myosin in bovine cardiac synthetic thick filaments (BcSTF) (Bos taurus, UniProt Q9BE39); test: Single mant-ATP turnover kinetics in BcSTF; assay type: biochemical
[2] = target: T2, bovine cardiac myofibrils (BcMF) (Bos taurus, UniProt Q9BE39); test: Single mant-ATP turnover kinetics in BcMF; assay type: biochemical
[3] = target: T1, myosin in bovine cardiac synthetic thick filaments (BcSTF); test: Basal myosin ATPase activity; assay type: biochemical; conditions: read-out: Basal ATPase (BcSTF) IC50, 1 μM myosin, 23°C
[4] = target: T2, bovine cardiac myofibrils (BcMF); test: Myofibrillar ATPase activity at pCa 6; assay type: biochemical; conditions: read-out: Myofibrillar ATPase (BcMF) IC50, pCa 6, 23°C
[5] = target: T3, human β-cardiac 25-hep HMM (Homo sapiens, UniProt P12883); test: SEC-MALS-DLS light scattering of 25-hep HMM; conditions: at 20 μM mavacamten and 50 μM para-nitroblebbistatin
[6] = target: T3, human β-cardiac 25-hep HMM; test: Small-angle X-ray scattering; conditions: at 20 μM mavacamten and 50 μM para-nitroblebbistatin
[7] = system: myosin; test: Blebbistatin binding to myosin in the presence of mavacamten; conditions: Fig. S2

T1 sequence (Q9BE39 whole entry): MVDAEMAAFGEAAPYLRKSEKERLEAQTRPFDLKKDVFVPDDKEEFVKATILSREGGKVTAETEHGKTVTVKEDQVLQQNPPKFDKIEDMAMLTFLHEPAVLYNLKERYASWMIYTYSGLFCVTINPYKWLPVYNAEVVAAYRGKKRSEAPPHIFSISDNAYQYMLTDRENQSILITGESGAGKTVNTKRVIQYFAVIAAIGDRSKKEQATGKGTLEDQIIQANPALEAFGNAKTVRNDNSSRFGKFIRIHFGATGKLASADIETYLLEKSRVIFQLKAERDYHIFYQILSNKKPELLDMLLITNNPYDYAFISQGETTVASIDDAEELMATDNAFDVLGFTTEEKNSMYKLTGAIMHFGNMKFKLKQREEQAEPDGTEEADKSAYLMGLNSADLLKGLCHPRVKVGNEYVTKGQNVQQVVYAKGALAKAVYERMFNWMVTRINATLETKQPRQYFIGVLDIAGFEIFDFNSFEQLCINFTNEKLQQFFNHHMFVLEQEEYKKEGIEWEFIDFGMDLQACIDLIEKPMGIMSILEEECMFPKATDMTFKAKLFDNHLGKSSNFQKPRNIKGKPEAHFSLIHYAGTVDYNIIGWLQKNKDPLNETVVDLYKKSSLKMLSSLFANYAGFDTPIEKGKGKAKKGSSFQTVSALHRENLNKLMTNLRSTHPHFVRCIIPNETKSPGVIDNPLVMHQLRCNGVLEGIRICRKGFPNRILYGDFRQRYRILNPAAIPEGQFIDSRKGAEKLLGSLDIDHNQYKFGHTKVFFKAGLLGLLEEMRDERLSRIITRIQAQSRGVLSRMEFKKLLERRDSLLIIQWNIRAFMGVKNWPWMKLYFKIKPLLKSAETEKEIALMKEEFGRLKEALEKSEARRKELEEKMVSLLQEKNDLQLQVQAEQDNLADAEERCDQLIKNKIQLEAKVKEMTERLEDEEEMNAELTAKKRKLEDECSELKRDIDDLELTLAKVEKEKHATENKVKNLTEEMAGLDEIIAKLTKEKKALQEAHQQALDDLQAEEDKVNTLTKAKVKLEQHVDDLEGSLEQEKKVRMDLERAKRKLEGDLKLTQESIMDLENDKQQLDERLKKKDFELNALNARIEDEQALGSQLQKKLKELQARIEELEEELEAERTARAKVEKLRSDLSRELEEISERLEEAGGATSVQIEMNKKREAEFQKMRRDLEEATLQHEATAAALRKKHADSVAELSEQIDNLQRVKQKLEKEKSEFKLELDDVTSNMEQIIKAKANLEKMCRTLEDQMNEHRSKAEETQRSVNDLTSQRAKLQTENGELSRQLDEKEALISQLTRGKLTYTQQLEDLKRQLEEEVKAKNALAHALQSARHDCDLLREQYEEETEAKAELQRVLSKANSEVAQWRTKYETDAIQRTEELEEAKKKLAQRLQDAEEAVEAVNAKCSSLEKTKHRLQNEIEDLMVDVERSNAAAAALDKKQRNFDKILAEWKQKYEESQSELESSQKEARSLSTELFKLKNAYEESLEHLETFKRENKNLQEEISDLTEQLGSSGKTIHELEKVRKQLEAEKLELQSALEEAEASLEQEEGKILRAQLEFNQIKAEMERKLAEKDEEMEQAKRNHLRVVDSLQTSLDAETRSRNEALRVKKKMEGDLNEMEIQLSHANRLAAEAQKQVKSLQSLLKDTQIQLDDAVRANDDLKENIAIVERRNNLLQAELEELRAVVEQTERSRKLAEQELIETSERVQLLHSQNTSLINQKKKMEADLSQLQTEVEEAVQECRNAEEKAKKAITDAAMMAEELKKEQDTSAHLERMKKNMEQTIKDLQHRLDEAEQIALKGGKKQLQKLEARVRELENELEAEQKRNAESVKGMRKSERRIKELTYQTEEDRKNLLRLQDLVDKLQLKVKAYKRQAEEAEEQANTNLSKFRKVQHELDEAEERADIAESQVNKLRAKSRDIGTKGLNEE
T1 sequence (P85100 whole entry partner): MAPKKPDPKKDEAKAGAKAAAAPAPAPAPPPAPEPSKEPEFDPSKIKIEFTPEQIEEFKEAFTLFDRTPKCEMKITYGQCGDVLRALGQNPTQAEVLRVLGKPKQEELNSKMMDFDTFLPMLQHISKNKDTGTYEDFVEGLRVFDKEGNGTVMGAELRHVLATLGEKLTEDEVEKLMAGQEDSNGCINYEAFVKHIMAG
T1 sequence (Q3SZE5 whole entry partner): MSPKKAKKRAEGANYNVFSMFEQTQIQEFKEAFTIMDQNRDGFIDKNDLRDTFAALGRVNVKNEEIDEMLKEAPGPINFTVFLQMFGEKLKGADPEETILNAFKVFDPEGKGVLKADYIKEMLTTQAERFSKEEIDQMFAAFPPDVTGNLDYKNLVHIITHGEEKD
T2 sequence (Q9BE39 whole entry): as the sequence (Q9BE39 whole entry) above
T2 sequence (P85100 whole entry partner): as the sequence (P85100 whole entry partner) above
T2 sequence (Q3SZE5 whole entry partner): as the sequence (Q3SZE5 whole entry partner) above

CC(C)n1c(=O)cc(N[C@@H](C)c2ccccc2)[nH]c1=O [Mavacamten, mavacamten]
Hill coefficient ([1]; DRX to SRX shift, up to 3.125 μM): 2–4
magnitude of myosin SRX population ([1]; saturating concentrations): ~ 100%
magnitude of myosin SRX population ([2]; saturating concentrations): ~ 65%

Cc1ccc2c(c1)C(=O)[C@]1(O)CCN(c3ccc([N+](=O)[O-])cc3)C1=N2 [Para-nitroblebbistatin, para-nitroblebbistatin]
IC50 [3]: 2.37 ± 0.12 µM
IC50 [4]: 4.05 ± 0.34 µM
lifetime of mant-nucleotides for compound-bound myosin ([1]; experiment duration 2400 s): > 2400 s
IC50 ([1]; read-out: DRX ATPase Rate, kfast (BcSTF), half-maximal decrease, 0μM blebbistatin): > 12.5 µM
EC50 ([1]; read-out: SRX Amplitude, Aslow (BcSTF), half-maximal increase, 0μM blebbistatin): > 12.5 µM
IC50 ([2]; read-out: DRX ATPase Rate, kfast (BcMF), half-maximal decrease): > 12.5 µM
EC50 ([2]; read-out: SRX Amplitude, Aslow (BcMF), half-maximal increase): > 12.5 µM
Hydrodynamic radius of 25-hep HMM (DLS) [5]: 84.1±2.2 Å
Molecular Mass of 25-hep HMM (MALS) [5]: 363±14 kDa
I(0), Guinier Analysis [6]: 0.04 ± 0.01 cm⁻¹
I(0), P(r) Analysis [6]: 0.04 ± 0 cm⁻¹
Porod volume, P(r) Analysis [6]: 1.42e6 Å^−3
Rg, Guinier Analysis [6]: 102.5±1.5 Å
Rg, P(r) Analysis [6]: 124±10 Å
reduction of Rg (Guinier) compared to untreated 25-hep HMM [6]: 14%
reduction of Rg (P(r) analysis) compared to untreated 25-hep HMM [6]: 11%

Cc1ccc2c(c1)C(=O)C1(O)CCN(c3ccccc3)C1=N2 (centres unmarked) [blebbistatin]
binding of blebbistatin in the presence of mavacamten [7]: not compromised
